Like-named read-outs stand apart in the source and are kept apart here.
Legend:
CaOV3 = experiment: MTT cell viability assay
Protocol: (§4) The rate of cell-survival under the action of test substances was evaluated by an improved MTT assay as previously described [20, 31]. […] Incubation was ended after 72 h and cell survival was determined by addition of MTT (Serva, Heidelberg, Germany) solution (5 mg/mL in phosphate buffered saline). The formazan precipitate was dissolved in DMSO (VWR, Langenfeld, Germany). Absorbance was measured at 544 nm and 690 nm in a FLUOstar microplate-reader (BMG LabTech, Offenburg, Germany).

HEY [1] = experiment: MTT cell viability assay
Protocol: as §4

A2780 [2] = conditions: cited from earlier work
Kuramochi = experiment: MTT cell viability assay
Protocol: as §4

OVSAHO [3] = experiment: MTT cell viability assay
Protocol: as §4

A2780 [4] = experiment: MTT cell viability assay
Protocol: as §4

A2780 [5] = experiment: Synergism study (Chou-Talalay, MTT), 48 h HDACi + 72 h HDACi and cisplatin; type: cell-based, human
Protocol: (§1) Concentrations were chosen to achieve a fraction affected (fa; level of cell viability inhibition) between 0.2 and 0.9 in the Chou-Talalay-analysis.
(§2) After 72 h, the cytotoxic effect was determined with a MTT cell viability assay. Calcusyn software 2.1 (Biosoft, Cambridge, UK) was used to calculate the combination index (CI) as a quantitative measure of the degree of drug interaction.

HEY [6] = experiment: as above; type: cell-based, human
Protocol: as §1, §2

OVSAHO [7] = experiment: as above; type: cell-based, human
Protocol: as §1, §2

HDAC in OVSAHO cells = experiment: Whole-cell HDAC inhibition assay; type: cell-based, human; conditions: 18 h incubation
Protocol: (§3) The cellular HDAC assay was based on an assay published by Heltweg and Jung, Ciossek et al., and Bonfils et al. with minor modifications as described in [20]. Briefly, human cancer cell lines A2780, CaOV3, HEY, Kuramochi, and OVSAHO were seeded in 96-well tissue culture plates (Corning, Kaiserslautern, Germany) at a density of 15,000 c/w, 15,000 c/w, 17,500 c/w, 22,500 c/w, and 50,000 c/w in a total volume of 90 µL of culture medium. After 24 h, cells were incubated for 18 h with increasing concentrations of test compounds. The reaction was started by adding 10 µL of 3 mM Boc-Lys(Ac)-AMC (Bachem, Bubendorf, Switzerland) to reach final concentration of 0.3 mM [61]. The cells were incubated with the Boc-Lys(Ac)-AMC for 3 h under cell culture conditions. […] Fluorescence intensity was measured at excitation of 320 nm and emission of […] in a NOVOstar microplate reader (BMG LabTech, Offenburg, Germany).

HDAC in CaOV3 cells = experiment: Whole-cell HDAC inhibition assay; type: cell-based, human; conditions: 18 h incubation
Protocol: as §3

HDAC in HEY cells = experiment: Whole-cell HDAC inhibition assay; type: cell-based, human; conditions: 18 h incubation
Protocol: as §3

HDAC in A2780 cells = experiment: Whole-cell HDAC inhibition assay; type: cell-based, human; conditions: 18 h incubation
Protocol: as §3

HDAC in Kuramochi cells = experiment: Whole-cell HDAC inhibition assay; type: cell-based, human; conditions: 18 h incubation
Protocol: as §3

HEY [8] = experiment: Measurement of apoptotic nuclei (subG1, flow cytometry); type: cell-based, human; conditions: HDACi 48 h, then cisplatin IC50 24 h
Protocol: Next, we investigated if the observed synergistic cytotoxic effect was mediated via apoptosis-induction. […] Then, cells were subjected to flow-cytometry-based subG1 analysis.
A2780, CaOV3, HEY, Kuramochi, and OVSAHO cells were seeded at a density of 40,000 c/w, 50,000 c/w, 40,000 c/w, 60,000 c/w, and 100,000 c/w in 24-well plates (Sarstedt, Nürnbrecht, Germany). Cells were treated with entinostat, panobinostat, or nexturastat A and cisplatin alone or in combination for the indicated time points. Supernatant was removed after a centrifugation step and the cells were lysed in 500 µL hypotonic lysis buffer (0.1% sodium citrate, 0.1% Triton X-100, 100 µg/mL PI) at 4 °C in the dark overnight. The percentage of apoptotic nuclei with DNA content in sub-G1 was analyzed by flow cytometry using the CyFlow instrument (Partec, Norderstedt, Germany).

[9] = test system: A2780, CaOV3, HEY, Kuramochi, OVSAHO; experiment: Synergism study (Chou-Talalay, MTT), all cell lines; type: cell-based, human; conditions: 48 h + 72 h; CI < 0.9 indicates synergism
Protocol: as §1, §2

[10] = read-out: IC50 of cisplatin, cisplatin alone, 72 h
[11] = cisplatin 1.00 µM + panobinostat 40 nM
[12] = cisplatin 2.00 µM + panobinostat 40 nM
[13] = cisplatin 4.00 µM + panobinostat 40 nM
[14] = read-out: IC50 (HDAC inhibitory activity)

N.N.[Cl][Pt][Cl] [Cisplatin, cis-diamminedichloridoplatinum(II)]
IC50 (CaOV3; 72 h incubation): 1.44 µM | pIC50 ± SEM (CaOV3; 72 h incubation): 5.84 ± 0.01 | IC50 (CaOV3; [10]): 1.44 µM | IC50 (HEY [1]; 72 h incubation): 5.25 µM | pIC50 ± SEM (HEY [1]; 72 h incubation): 5.28 ± 0.01 | IC50 (HEY [1]; [10]): 5.25 µM | IC50-values for cisplatin in previous studies (A2780 [2]): one-digit micromolar range | IC50 (Kuramochi; 72 h incubation): 4.68 µM | pIC50 ± SEM (Kuramochi; 72 h incubation): 5.33 ± 0.02 | IC50 (Kuramochi; [10]): 4.68 µM | IC50 (OVSAHO [3]; 72 h incubation): 4.83 µM | pIC50 ± SEM (OVSAHO [3]; 72 h incubation): 5.32 ± 0.01 | IC50 (OVSAHO [3]; [10]): 4.83 µM | IC50 (A2780 [4]; 72 h incubation): 11 µM | pIC50 ± SEM (A2780 [4]; 72 h incubation): 4.96 ± 0.01 | IC50 (A2780 [4]; [10]): 11 µM

Cc1[nH]c2ccccc2c1CCNCc1ccc(/C=C/C(=O)NO)cc1 [Panobinostat, panobinostat]
combination index (CI) (A2780 [5]; cisplatin 0.50 µM + panobinostat 10 nM): 0.21 | combination index (CI) (A2780 [5]; cisplatin 0.50 µM + panobinostat 20 nM): 0.10 | combination index (CI) (A2780 [5]; cisplatin 0.50 µM + panobinostat 30 nM): 0.15 | combination index (CI) (A2780 [5]; cisplatin 0.50 µM + panobinostat 40 nM): 0.15 | combination index (CI) (A2780 [5]; cisplatin 1.00 µM + panobinostat 10 nM): 0.25 | combination index (CI) (A2780 [5]; cisplatin 1.00 µM + panobinostat 20 nM): 0.12 | combination index (CI) (A2780 [5]; cisplatin 1.00 µM + panobinostat 30 nM): 0.17 | combination index (CI) (A2780 [5]; [11]): 0.18 | combination index (CI) (A2780 [5]; cisplatin 2.00 µM + panobinostat 10 nM): 0.35 | combination index (CI) (A2780 [5]; cisplatin 2.00 µM + panobinostat 20 nM): 0.16 | combination index (CI) (A2780 [5]; cisplatin 2.00 µM + panobinostat 30 nM): 0.22 | combination index (CI) (A2780 [5]; [12]): 0.21 | combination index (CI) (A2780 [5]; cisplatin 4.00 µM + panobinostat 10 nM): 0.35 | combination index (CI) (A2780 [5]; cisplatin 4.00 µM + panobinostat 20 nM): 0.21 | combination index (CI) (A2780 [5]; cisplatin 4.00 µM + panobinostat 30 nM): 0.27 | combination index (CI) (A2780 [5]; [13]): 0.25 | combination index (CI) (A2780 [5]; cisplatin 6.00 µM + panobinostat 10 nM): 0.29 | combination index (CI) (A2780 [5]; cisplatin 6.00 µM + panobinostat 20 nM): 0.23 | combination index (CI) (A2780 [5]; cisplatin 6.00 µM + panobinostat 30 nM): 0.26 | combination index (CI) (A2780 [5]; cisplatin 6.00 µM + panobinostat 40 nM): 0.26 | combination index (CI) (HEY [6]; cisplatin 0.32 µM + panobinostat 5.0 nM): * (* means fraction affected is less than 0.20) | combination index (CI) (HEY [6]; cisplatin 0.32 µM + panobinostat 10.0 nM): * (* means fraction affected is less than 0.20) | combination index (CI) (HEY [6]; cisplatin 0.32 µM + panobinostat 20.0 nM): 0.14 | combination index (CI) (HEY [6]; cisplatin 0.32 µM + panobinostat […]): 0.19 | combination index (CI) (HEY [6]; cisplatin 0.50 µM + panobinostat 5.0 nM): * (* means fraction affected is less than 0.20) | combination index (CI) (HEY [6]; cisplatin 0.50 µM + panobinostat 10.0 nM): * (* means fraction affected is less than 0.20) | combination index (CI) (HEY [6]; cisplatin 0.50 µM + panobinostat 20.0 nM): 0.15 | combination index (CI) (HEY [6]; cisplatin 0.50 µM + panobinostat […]): 0.21 | combination index (CI) (HEY [6]; cisplatin 1.00 µM + panobinostat 5.0 nM): * (* means fraction affected is less than 0.20) | combination index (CI) (HEY [6]; cisplatin 1.00 µM + panobinostat 10.0 nM): * (* means fraction affected is less than 0.20) | combination index (CI) (HEY [6]; cisplatin 1.00 µM + panobinostat 20.0 nM): 0.16 | combination index (CI) (HEY [6]; cisplatin 1.00 µM + panobinostat […]): 0.25 | combination index (CI) (HEY [6]; cisplatin 2.00 µM + panobinostat 5.0 nM): * (* means fraction affected is less than 0.20) | combination index (CI) (HEY [6]; cisplatin 2.00 µM + panobinostat 10.0 nM): 0.41 | combination index (CI) (HEY [6]; cisplatin 2.00 µM + panobinostat 20.0 nM): 0.17 | combination index (CI) (HEY [6]; cisplatin 2.00 µM + panobinostat […]): 0.25 | combination index (CI) (HEY [6]; cisplatin 4.00 µM + panobinostat 5.0 nM): 0.51 | combination index (CI) (HEY [6]; cisplatin 4.00 µM + panobinostat 10.0 nM): 0.33 | combination index (CI) (HEY [6]; cisplatin 4.00 µM + panobinostat 20.0 nM): 0.20 | combination index (CI) (HEY [6]; cisplatin 4.00 µM + panobinostat […]): 0.28 | combination index (CI) (OVSAHO [7]; [11]): 0.36 | combination index (CI) (OVSAHO [7]; cisplatin 1.00 µM + panobinostat 50 nM): 0.33 | combination index (CI) (OVSAHO [7]; cisplatin 1.00 µM + panobinostat 60 nM): 0.27 | combination index (CI) (OVSAHO [7]; cisplatin 1.00 µM + panobinostat 70 nM): 0.26 | combination index (CI) (OVSAHO [7]; [12]): 0.25 | combination index (CI) (OVSAHO [7]; cisplatin 2.00 µM + panobinostat 50 nM): 0.23 | combination index (CI) (OVSAHO [7]; cisplatin 2.00 µM + panobinostat 60 nM): 0.21 | combination index (CI) (OVSAHO [7]; cisplatin 2.00 µM + panobinostat 70 nM): 0.21 | combination index (CI) (OVSAHO [7]; cisplatin 3.00 µM + panobinostat 40 nM): 0.24 | combination index (CI) (OVSAHO [7]; cisplatin 3.00 µM + panobinostat 50 nM): 0.22 | combination index (CI) (OVSAHO [7]; cisplatin 3.00 µM + panobinostat 60 nM): 0.21 | combination index (CI) (OVSAHO [7]; cisplatin 3.00 µM + panobinostat 70 nM): 0.21 | combination index (CI) (OVSAHO [7]; [13]): 0.23 | combination index (CI) (OVSAHO [7]; cisplatin 4.00 µM + panobinostat 50 nM): 0.22 | combination index (CI) (OVSAHO [7]; cisplatin 4.00 µM + panobinostat 60 nM): 0.21 | combination index (CI) (OVSAHO [7]; cisplatin 4.00 µM + panobinostat 70 nM): 0.21 | combination index (CI) (OVSAHO [7]; cisplatin 5.00 µM + panobinostat 40 nM): 0.24 | combination index (CI) (OVSAHO [7]; cisplatin 5.00 µM + panobinostat 50 nM): 0.23 | combination index (CI) (OVSAHO [7]; cisplatin 5.00 µM + panobinostat 60 nM): 0.22 | combination index (CI) (OVSAHO [7]; cisplatin 5.00 µM + panobinostat 70 nM): 0.22 | pIC50 ± SEM (HDAC inhibitory activity) (HDAC in OVSAHO cells): 7.64 ± 0.04 | IC50 (HDAC in OVSAHO cells; [14]): 0.0231 µM | pIC50 ± SEM (HDAC inhibitory activity) (HDAC in CaOV3 cells): 8.10 ± 0.05 | IC50 (HDAC in CaOV3 cells; [14]): 0.00788 µM | pIC50 ± SEM (HDAC inhibitory activity) (HDAC in HEY cells): 7.87 ± 0.03 | IC50 (HDAC in HEY cells; [14]): 0.0136 µM | pIC50 ± SEM (HDAC inhibitory activity) (HDAC in A2780 cells): 7.91 ± 0.06 | IC50 (HDAC in A2780 cells; [14]): 0.0121 µM | pIC50 ± SEM (HDAC inhibitory activity) (HDAC in Kuramochi cells): 8.01 ± 0.07 | IC50 (HDAC in Kuramochi cells; [14]): 0.00987 µM | apoptosis induction, combination with cisplatin versus cisplatin or HDACi alone (HEY [8]): no difference in apoptosis induction | CI-values (interaction with cisplatin) [9]: lower than 0.9

— article PMC6627993 (International Journal of Molecular Sciences, 2019)
